Measurements as given in paper PMC9506485, “Synthesis and Structure–Activity Relationships for the Anti-Mycobacterial Activity of 3-Phenyl-N-(Pyridin-2-ylmethyl)Pyrazolo[1,5-a]Pyrimidin-7-Amines” (Pharmaceuticals, 2022).
≈ marks a conversion by molar mass, not a printed value.

Experiments:
[1] = tested on: Mycobacterium tuberculosis (strain H37Rv); test: MABA minimum inhibitory concentration assay (aerobic/replicating); assay type: cell-based; settings: M.tb H37Rv; for MIC90: Mycobacterium tuberculosis; for MIC90 / MIC90 MABA: aerobic/replicating, 90% inhibition of growth
[2] = tested on: VERO green monkey kidney cells; test: VERO mammalian cell toxicity assay; assay type: cell-based; settings: inhibition of growth of VERO green monkey kidney epithelial cells; for IC50: Chlorocebus sabaeus
[3] = tested on: Mycobacterium tuberculosis (strain H37Rv); test: LORA minimum inhibitory concentration assay (low-oxygen/non-replicating); settings: M.tb H37Rv, 90% inhibition of growth
[4] = Microsomal stability, mouse liver microsomes; assay type: in vitro ADME; settings: for CLint scaled at 1 μM / half-life at 1 μM: CD-1, mouse, microsomes, pH 7.4; for microsomal CLint at 1 μM: CD-1, pH 7.4, mouse liver microsomes, read-out: MLM Clint(mic)
Experimental: (§1) Assays were performed by WuXi AppTec (Shanghai) Co., Ltd. The test compounds (Table 4) (at 1 μM) were incubated at 37 °C with liver microsomes from human or CD-1 mice in the presence of a NADPH regenerating system and phosphate buffer (100 mM, pH 7.4) at 0.5 mg/mL microsomal protein (the positive controls were testosterone, propafenone, and diclofenac). Samples were removed at time intervals of 0, 5, 10, 20, 30, and 60 min and immediately mixed with cold CH3CN (containing 0.1 μg/mL of tolbutamide as an internal standard) and then centrifuged prior to analysis by LCMS/MS.

[5] = Microsomal stability, human liver microsomes; assay type: in vitro ADME; settings: pH 7.4; for microsomal CLint at 1 μM: human liver microsomes, read-out: HLM Clint(mic)
Experimental: as §1

[6] = human/mouse liver microsomes not distinguished, read-out: T½ values (microsomal stability)

| Compound | MIC90 [1] | IC50 [2] | MIC90 LORA [3] | also measured |
| --- | --- | --- | --- | --- |
| Fc1ccc(-c2cnn3c(NCc4ccccn4)cc(-c4ccc(C(F)(F)F)cc4)nc23)cc1 [Compound 37, 3-(4-Fluorophenyl)-N-(pyridin-2-ylmethyl)-5-(4-(trifluoromethyl)phenyl)pyrazolo[1,5-a]pyrimidin-7-amine] | 3.8 µg/mL (≈ 8.2 µM) | > 32 µg/mL | 3.6 µg/mL (≈ 7.77 µM) |  |
| FC(F)(F)c1ccc(-c2cnn3c(NCc4ccccn4)cc(-c4ccccc4)nc23)cc1 [Compound 21, 5-Phenyl-N-(pyridin-2-ylmethyl)-3-(4-(trifluoromethyl)phenyl)pyrazolo[1,5-a]pyrimidin-7-amine] | > 32 µg/mL | > 32 µg/mL | >32 µg/mL | anti-mycobacterial activity in words ([1]; MABA/LORA): inactive; melting point: 188 to 190 °C |
| Fc1ccc(-c2cnn3c(NCc4ccc(N5CCCCC5)cn4)cc(-c4ccccc4)nc23)cc1 [Compound 59, 3-(4-Fluorophenyl)-5-phenyl-N-((5-(piperidin-1-yl)pyridin-2-yl)methyl)pyrazolo[1,5-a]pyrimidin-7-amine] | 0.96 µg/mL (≈ 2.01 µM) | > 32 µg/mL | 0.85 µg/mL (≈ 1.78 µM) | melting point: 179 to 182 °C |
| CN(C)CCN(C)c1ccnc(CNc2cc(-c3ccccc3)nc3c(-c4ccc(F)cc4)cnn23)c1 [Compound 67, N1-(2-(((3-(4-Fluorophenyl)-5-phenylpyrazolo[1,5-a]pyrimidin-7-yl)amino)methyl)pyridin-4-yl)-N1,N2,N2-trimethylethane-1,2-diamine] | 1.7 µg/mL (≈ 3.43 µM) | 9.9 µg/mL (≈ 20 µM) | 1.5 µg/mL (≈ 3.03 µM) | melting point: 158 to 160 °C |
| Fc1ccc(-c2cnn3c(NCc4ccccn4)cc(-c4ccncc4)nc23)cc1 [Compound 40, 3-(4-Fluorophenyl)-N-(pyridin-2-ylmethyl)-5-(pyridin-4-yl)pyrazolo[1,5-a]pyrimidin-7-amine] | > 32 µg/mL | > 32 µg/mL | 28 µg/mL (≈ 70.6 µM) |  |
| CN(C)CC#Cc1ccc(CNc2cc(-c3ccccc3)nc3c(-c4ccc(F)cc4)cnn23)nc1 [Compound 55, N-((5-(3-(Dimethylamino)prop-1-yn-1-yl)pyridin-2-yl)methyl)-3-(4-fluorophenyl)-5-phenylpyrazolo[1,5-a]pyrimidin-7-amine] | 1.9 µg/mL (≈ 3.99 µM) | > 32 µg/mL | 5.5 µg/mL (≈ 11.5 µM) | CLint scaled at 1 μM [4]: 121 mL/min/kg; half-life at 1 μM [4]: 45.4 min; microsomal CLint at 1 μM [4]: 31 µL/min/mg; CLint scaled at 1 μM ([5]; human, microsomes): < 8.6 mL/min/kg; half-life at 1 μM ([5]; human, microsomes): > 145 min; microsomal CLint at 1 μM [5]: < 9.6 µL/min/mg |
| CN(C)c1cccc(CNc2cc(-c3ccccc3)nc3c(-c4ccc(F)cc4)cnn23)n1 [Compound 49, N-((6-(Dimethylamino)pyridin-2-yl)methyl)-3-(4-fluorophenyl)-5-phenylpyrazolo[1,5-a]pyrimidin-7-amine] | 1.39 µg/mL (≈ 3.17 µM) | > 32 µg/mL | 0.40 µg/mL (≈ 0.912 µM) | melting point: 151 to 153 °C |
| Fc1ccc(-c2cnn3c(NCc4ccccn4)ccnc23)cc1 [Compound 22, 3-(4-Fluorophenyl)-N-(pyridin-2-ylmethyl)pyrazolo[1,5-a]pyrimidin-7-amine] | 0.89 µg/mL (≈ 2.79 µM) | > 32 µg/mL | 0.39 µg/mL (≈ 1.22 µM) |  |
| 3-(4-Fluorophenyl)-N-((6-(4-methylpiperidin-1-yl)pyridin-2-yl)methyl)-5-phenylpyrazolo[1,5-a]pyrimidin-7-amine [Compound 51] |  |  | 0.85 µg/mL | MIC90 MABA [1]: 0.94 µg/mL; IC50 VERO [2]: 11.8 µg/mL |
| COc1ccccc1-c1cc(NCc2ccccn2)n2ncc(-c3ccc(F)cc3)c2n1 [Compound 29, 3-(4-Fluorophenyl)-5-(2-methoxyphenyl)-N-(pyridin-2-ylmethyl)pyrazolo[1,5-a]pyrimidin-7-amine] | 13.3 µg/mL (≈ 31.3 µM) | > 32 µg/mL | 9.0 µg/mL (≈ 21.2 µM) |  |
| COc1cccc(-c2cc(NCc3ccccn3)n3ncc(-c4ccc(F)cc4)c3n2)c1 [Compound 31, 3-(4-Fluorophenyl)-5-(3-methoxyphenyl)-N-(pyridin-2-ylmethyl)pyrazolo[1,5-a]pyrimidin-7-amine] | 3.9 µg/mL (≈ 9.17 µM) | > 32 µg/mL | 1.7 µg/mL (≈ 4 µM) |  |
| Cc1ccc(-c2cc(NCc3ccccn3)n3ncc(-c4ccc(F)cc4)c3n2)cc1 [Compound 33, 3-(4-Fluorophenyl)-N-(pyridin-2-ylmethyl)-5-(p-tolyl)pyrazolo[1,5-a]pyrimidin-7-amine] | 3.7 µg/mL (≈ 9.04 µM) | > 32 µg/mL | 5.0 µg/mL (≈ 12.2 µM) |  |
| CN(C)CCCc1ccc(CNc2cc(-c3ccccc3)nc3c(-c4ccc(F)cc4)cnn23)nc1 [Compound 56, N-((5-(3-(dimethylamino)propyl)pyridin-2-yl)methyl)-3-(4-fluorophenyl)-5-phenylpyrazolo[1,5-a]pyrimidin-7-amine] | 5.8 µg/mL (≈ 12.1 µM) | 20.3 µg/mL (≈ 42.2 µM) | 6.1 µg/mL (≈ 12.7 µM) |  |
| C=Cc1cc(NCc2ccccn2)n2ncc(-c3ccc(F)cc3)c2n1 [Compound 24, 3-(4-Fluorophenyl)-N-(pyridin-2-ylmethyl)-5-vinylpyrazolo[1,5-a]pyrimidin-7-amine] | 1.48 µg/mL (≈ 4.29 µM) | 17.2 µg/mL (≈ 49.8 µM) | 0.47 µg/mL (≈ 1.36 µM) |  |
| Fc1ccc(-c2cc(NCc3ccccn3)n3ncc(-c4ccc(F)cc4)c3n2)cc1 [Compound 32, 3,5-Bis(4-fluorophenyl)-N-(pyridin-2-ylmethyl)pyrazolo[1,5-a]pyrimidin-7-amine] | 3 µg/mL (≈ 7.26 µM) | > 32 µg/mL | 0.22 µg/mL (≈ 0.532 µM) |  |
| N-((4-(2-(Dimethylamino)ethoxy)pyridin-2-yl)methyl)-3-(4-fluorophenyl)-5-phenylpyrazolo[1,5-a]pyrimidin-7-amine [Compound 58] |  |  | 4.1 µg/mL | MIC90 MABA [1]: 4.7 µg/mL; IC50 VERO [2]: >32 µg/mL |
| Fc1ccc(-c2cnn3c(NCc4ccccn4)cc(C4=CCCCC4)nc23)cc1 [Compound 27, 5-(Cyclohex-1-en-1-yl)-3-(4-fluorophenyl)-N-(pyridin-2-ylmethyl)pyrazolo[1,5-a]pyrimidin-7-amine] | 0.62 µg/mL (≈ 1.55 µM) | > 32 µg/mL | 0.44 µg/mL (≈ 1.1 µM) | CLint scaled at 1 μM [4]: 120 mL/min/kg; half-life at 1 μM [4]: 49 min; microsomal CLint at 1 μM [4]: 30 µL/min/mg; CLint scaled at 1 μM ([5]; human, microsomes): 17 mL/min/kg; half-life at 1 μM ([5]; human, microsomes): 75 min; microsomal CLint at 1 μM [5]: 19 µL/min/mg; half-life at 1 μM [5, 6]: < 85 min |
| CN(C)CCOc1ccc(CNc2cc(-c3ccccc3)nc3c(-c4ccc(F)cc4)cnn23)nc1 [Compound 57, N-((5-(2-(Dimethylamino)ethoxy)pyridin-2-yl)methyl)-3-(4-fluorophenyl)-5-phenylpyrazolo[1,5-a]pyrimidin-7-amine] | 3.6 µg/mL (≈ 7.46 µM) | 24 µg/mL (≈ 49.7 µM) | 1.9 µg/mL (≈ 3.94 µM) |  |
| Fc1ccc(-c2cnn3c(NCc4ccccn4)cc(-c4ccco4)nc23)cc1 [Compound 43, 3-(4-Fluorophenyl)-5-(furan-2-yl)-N-(pyridin-2-ylmethyl)pyrazolo[1,5-a]pyrimidin-7-amine] | 0.96 µg/mL (≈ 2.49 µM) | > 32 µg/mL | <0.13 µg/mL |  |
| Fc1ccc(-c2cnn3c(NCc4ccccn4)cc(C4=CCCC4)nc23)cc1 [Compound 26, 5-(Cyclopent-1-en-1-yl)-3-(4-fluorophenyl)-N-(pyridin-2-ylmethyl)pyrazolo[1,5-a]pyrimidin-7-amine] | 0.89 µg/mL (≈ 2.31 µM) | > 32 µg/mL | 0.23 µg/mL (≈ 0.597 µM) | CLint scaled at 1 μM [4]: 140 mL/min/kg; half-life at 1 μM [4]: 39 min; microsomal CLint at 1 μM [4]: 35 µL/min/mg; CLint scaled at 1 μM ([5]; human, microsomes): 32 mL/min/kg; half-life at 1 μM ([5]; human, microsomes): 39 min; microsomal CLint at 1 μM [5]: 35 µL/min/mg; half-life at 1 μM [5, 6]: < 85 min |
